In patent US7560473B2 (Institute of Pharmacology and Toxicology Academy of …, priority 2001, dated 2009):

Experiments:
[1] = tested on: rats anesthetized with pentobarbital sodium; experiment: Effects on blood pressure, heart rate, cardiac contraction and dilation in rats anesthetized with pentobarbital sodium; format: in vivo, Wistar rats; design: unit not given here; conditions: change after injection through femoral vein, '+' = increase, all others = decrease; for MBP: mean blood pressure: n = 3~5, doses mg/kg: 2, 8, 12: 10, 3-7, 9-11, 40-44: 5; for DBP: diastolic blood pressure / HR: heart rate / LVSP: left ventricular systolic pressure / SBP: systolic blood pressure / Vpm: the physiological velocity of contractile element shorting / −dp/dtmax: the maximal rate of the decrease of left ventricular pressure: mean, n = 3~5, doses mg/kg: 2, 8, 12: 10, 3-7, 9-11, 40-44: 5
Procedure: Biological activity experiment 1. The effects of 16 compounds represented by formula I on blood pressure, heart rate, cardiac contraction and dilation in rats anesthetized with pentobarbital sodium.
The methods of biological activity experiment 1 were as follows: Male Wistar rats, weighing 280±30 g were purchased from the experimental animal center of Academy of Military Medical Sciences. Rats were anesthetized with pentobarbital sodium (45 mg/kg) by peritoneal injection. A PE50 polyethylene catheter was inserted into the left ventricle through right carotid artery for cardiac function measurement with a pressure energe exchanger, wherein the signal is put into a SMUP-PC biosignal processing system. Cardiac functional parameters such as HR, LVSP, +dp/dtmax, −dp/dtmax and Vpm were recorded. Another two PE50 polyethylene catheters were inserted into the right femoral artery and vein respectively for blood pressure measurement wherein the artery cathether was linked to a four-channel physiology recorder (RM-6000) through a MPU-0.5A Type pressure energe exchanger, which recorded SBP, DBP and MBP, while the vein catheter was used for compound administration. The methods were described by Liu Wei et al: Liu Wei, Wang Hai, Xiao Wen-Bin. […] Bull Acad Mil Med Sci 1996;20(4):245˜248.

[2] = tested on: spontaneously hypertensive rats; experiment: Acute antihypertensive effects in conscious spontaneously hypertensive rats; format: in vivo; conditions: po mg/kg: compound 1 3, pinacidil 3, nifedipine 10, bisoprolol 60, captopril 40, means ± SD, 9-13 rats; for heart rates at 1 h / heart rates at 3 h / heart rates at 5 h / heart rates at 9 h / heart rates at 12 h / heart rates at 24 h / heart rates base value: in bpm (unit assumed); for SBP base value / heart rates base value: base value before administration
From the text: Biological activity experiment 2. The acute antihypertensive effects of compound 1 in conscious spontaneously hypertensive rats.
The methods of biological activity experiment 2 were described by Long Chao-Liang et al: Long Chao-Liang, Wang Hai, Xiao Wen-Bin. Effects of pinacidil on, hypertensive vascular remodeling. Chin J Pharmacol Toxicol 1997; 11(1):42-46.

Structure (SMILES)	MBP: mean blood pressure [1]	DBP: diastolic blood pressure [1]	HR: heart rate [1]	LVSP: left ventricular systolic pressure [1]	SBP: systolic blood pressure [1]	Vpm: the physiological velocity of contractile element shorting [1]	−dp/dtmax: the maximal rate of the decrease of left ventricular pressure [1]	further results
CCC(C)(C)NC [compound 11]	13	10	19	+159	18	0.1	+86	–
CC(C)C(C)(C)NC(=O)[C@@H](N)Cc1ccccc1 [compound 43, N-phenylalanyl-2,3-dimethyl-2-butylamine]	+2	+1	+10	+31	+3	+0.13	+10	–
CCC(C)N (stereo not shown) [compound 10]	4	5	20	21	2	0.25	27	–
CCC(C)N (stereo not shown) [compound 12]	24	23	39	112	25	0.58	129	–
C[C@H](CS)C(=O)N1CCC[C@H]1C(=O)O [captopril]	–	–	–	–	–	–	–	SBP at 1 h after administration [2]: 207 ± 9 mmHg; heart rates at 1 h [2]: 380 ± 12; SBP at 3 h after administration [2]: 213 ± 11 mmHg; heart rates at 3 h [2]: 370 ± 24; SBP at 5 h after administration [2]: 233 ± 10 mmHg; heart rates at 5 h [2]: 366 ± 22; SBP at 9 h after administration [2]: 242 ± 4 mmHg; heart rates at 9 h [2]: 355 ± 12; SBP at 12 h after administration [2]: 241 ± 5 mmHg; heart rates at 12 h [2]: 355 ± 29; SBP at 24 h after administration [2]: 243 ± 4 mmHg; heart rates at 24 h [2]: 364 ± 12; SBP base value [2]: 243 ± 4 mmHg; heart rates base value [2]: 350 ± 17
CC(C)NC(C)C(C)C (stereo not shown) [compound 7]	34	34	46	184	34	1.08	226	–
CC(C)C(C)(C)NC(=O)[C@@H](N)Cc1c[nH]c2ccccc12 [compound 40, N-tryptophanyl-2,3-dimethyl-2-butylamine]	+0.7	0	6	+23	+2	+0.1	+6	–
CC(C)C[C@H](N)C(=O)NC(C)(C)C(C)C [compound 42, N-leucyl-2,3-dimethyl-2-butylamine]	+2	+2	+1	+10	+2	+0.18	+13	–
CC[C@H](C)[C@H](N)C(=O)NC(C)(C)C(C)C [compound 41, N-isoleucyl-2,3-dimethyl-2-butylamine]	+1	+1	16	+4	+2	0	+2	–
CC(C)NCC(O)COc1ccc(COCCOC(C)C)cc1 (stereo not shown) [bisoprolol]	–	–	–	–	–	–	–	SBP at 1 h after administration [2]: 211 ± 7 mmHg; heart rates at 1 h [2]: 283 ± 17; SBP at 3 h after administration [2]: 240 ± 7 mmHg; heart rates at 3 h [2]: 278 ± 16; SBP at 5 h after administration [2]: 242 ± 4 mmHg; heart rates at 5 h [2]: 335 ± 34; SBP at 9 h after administration [2]: 242 ± 3 mmHg; heart rates at 9 h [2]: 320 ± 36; SBP at 12 h after administration [2]: 243 ± 3 mmHg; heart rates at 12 h [2]: 341 ± 28; SBP at 24 h after administration [2]: 242 ± 6 mmHg; heart rates at 24 h [2]: 360 ± 7; SBP base value [2]: 242 ± 5 mmHg; heart rates base value [2]: 355 ± 17
CNC(C)C [compound 8]	26	24	53	121	28	1.45	124	–
